Common to all, as to format: in vivo
For data set [1], the system named is carrageenan-induced mouse paw swelling. The data set is described as follows: carrageenan-induced mouse paw swelling model. The conditions noted are these: for Circumference of the paw after administration: 180 min after onset of inflammation (0.5% carrageenan); for inhibition in vivo at 0.26 mg/kg / inhibition in vivo at 13 mg/kg / inhibition in vivo at 130 mg/kg / change in vivo at 130 mg/kg: Mus musculus, po, 3 h; for inhibition in vivo at 0.26 mg/kg: dosage 0.26 mg/kg; for inhibition in vivo at 0.26 mg/kg / inhibition in vivo at 13 mg/kg / inhibition in vivo at 130 mg/kg: read-out: Swelling inhibition rate; for inhibition in vivo at 13 mg/kg: dosage 13 mg/kg; for change in vivo at 130 mg/kg: read-out: Swelling degree. Here is the method: The anti-inflammatory effects of the compounds prepared in the above Examples were detected using a carrageenan-induced mouse paw swelling model, and the control sample was methylprednisolone:
Carrageenan-induced mouse paw swelling model is a classical acute inflammation model commonly used for evaluating or screening anti-inflammatory effects of drugs. When carrageenan is injected into the paw of mice, a series of reactions similar to human acute inflammation such as local capillary dilatation, increased vascular permeability, exudation and edema can be caused, so the model can be widely used in the evaluation of new drugs.
Reference for experimental method: Yang Huan, Cheng Xiao, Wang Yuehua, Du Guanhua. Effects of esculin on the swelling of toes and inflammation induced by carrageenan in mice [J]. Chinese Journal of New Drugs, 2016(25):2322.
On the day of the experiment, the circumference of right hind paw (cm) of each mouse was measured firstly, and then, after the onset of inflammation, the circumference of right hind paw was measured so that the difference of the circumferences of the paws before and after inflammation was swelling degree, and the swelling inhibition rate of paw (swelling inhibition rate %=(C−T)/C*100%); C=swelling rate of the control group %, and T=swelling rate of the treatment group) was calculated.
(2) Gavage administration was performed once a day for seven consecutive days. The circumference of the right hind paw was marked and measured before the last administration, and the average value of the two measurements was taken as the standard. 30 min after the last administration, 20 μL/mice of 0.5% carrageenan was injected into the right hind ankle of the mice to induce inflammation, and the circumference of paw was measured 180 min after the onset of inflammation. […]

The next data set concerns ICR mice. The following applies: p.o. Here is the method:
The experiment was designed according to the “Technical Guideline for Acute Toxicity Test of Chemical Drugs” issued by the State Food and Drug Administration in March 2005. The doses administered were 4 g/kg, 4.91 g/kg, 6.14 g/kg, 7.68 g/kg, 9.6 g/kg, 12 g/kg, and 15 g/kg (the dose could be adjusted according to the actual test results), 12 ICR mice per dose group. If the administration volume is greater than 0.5 ml, it is better to perform the drug administration in two or more times (Note: according to the national standard GB 15193.3-2014, if multiple drug administrations are required, the time interval should be 4 h to 6 h each time, and the patient should be fasted on the day before drug administration).

Data set [2] relates to rat paw swelling induced by monosodium urate (MSU). The data set is described as follows: rat paw swelling model induced by monosodium urate (MSU). The conditions noted are these: for inhibition in vivo at 90 mg/kg / inhibition in vivo at 0.36 mg/kg / inhibition in vivo at 1.8 mg/kg / inhibition in vivo at 9 mg/kg / change in vivo at 90 mg/kg: Rattus norvegicus, po; for inhibition in vivo at 90 mg/kg / inhibition in vivo at 0.36 mg/kg / inhibition in vivo at 1.8 mg/kg / inhibition in vivo at 9 mg/kg: 1 h, read-out: Swelling inhibition rate; for inhibition in vivo at 0.36 mg/kg: dosage 0.36 mg/kg; for inhibition in vivo at 1.8 mg/kg: dosage 1.8 mg/kg; for inhibition in vivo at 9 mg/kg: dosage 9 mg/kg; for change in vivo at 90 mg/kg: read-out: Swelling degree; for Mean volume of paw after administration: 1 h after onset of inflammation (50 μL 2% MSU). From the text: Gout is a disease unique to human, and gouty arthritis is an inflammatory reaction caused by the deposition of monosodium urate (MSU) in local joint tissues. Since purine metabolism pathways in some mammals such as mice and rabbits are different from those in humans, it is impossible to construct a gouty arthritis model by the method of interfering with purine metabolism disorders, so the most direct method for causing gouty arthritis is to directly inject MSU into the joint cavity of the model animal. The model is only used for simulating local joint inflammation of gout, is suitable for observation of local arthritis symptoms, is a common method for screening anti-inflammatory effects of gout drugs at present, and has the advantages of stability, easy operation and the like. (Reference: Li Na, Hua Long, and Yuan Hui. Research progress of gout animal models [J]. Medical theory and practice, 2016(24).
The anti-gout effect of the compound prepared in the above Example was detected by using a rat paw swelling model induced by monosodium urate (MSU), and the control sample was methylprednisolone.
Experimental method: MSU was used as an inflammatory agent, injected subcutaneously into the hind paws of rats to cause paw swelling, and then the volume of the paws was measured, and the swelling rates and swelling inhibition rates of the treatment group and the control group were compared. On the day of the experiment, the volume of right hind paw (ml) of each rat was measured firstly, and then after the onset of inflammation, the volume of right hind paw was measured so that the difference of volume of paw before and after inflammation was swelling degree, and the swelling inhibition rate of paw (swelling inhibition rate %=(C−T)/C*100%); C=swelling rate of the control group %, and T=swelling rate of the treatment group) was calculated. This method is one of the commonly used methods for screening anti-inflammatory effects of gout drugs, and the model is stable and easy to operate.
(2) One week before the subcutaneous injection of MSU into the feet and soles of the rats, the rats were given different doses of the test drugs, and the drugs were given by gavage once a day, for seven consecutive days. The circumference of the right hind paw was marked and measured before the last administration, and the average value of the two measurements was taken as the standard. 1 h after the last administration, animals in other groups were given 50 μL of 2% MSU in addition to the blank control group, and the paw circumference was measured 1 h after the onset of inflammation. […]

Where [3] appears, read: ICR mice, 130 mg/kg by gavage once a day for seven days, 180 min after onset of inflammation.
Setting [4] is: ICR mice, 130 mg/kg by gavage once a day for seven days.
Where [5] appears, read: mouse, carrageenan-induced paw swelling.
The mark [6] stands for this setting: mouse, carrageenan-induced paw swelling, dosage 130 mg/kg.
[7] abbreviates: SD rats, 90 mg/kg by gavage once a day for seven days, 1 h after onset of inflammation.
The mark [8] stands for this setting: rat, MSU-induced paw swelling, dosage 90 mg/kg.
[9] abbreviates: SD rats, 90 mg/kg by gavage once a day for seven days.

Data on three compounds can be found in patent US20230159583A1, “COMPOUND FOR TREATING GOUT, PREPARATION METHOD THEREFOR, AND USE THEREOF” (Huazhong Pharmaceutical Co., Ltd., priority 2020, published 2023).

Molecules are shown by their SMILES. Where two headings read alike, the source gives them in different places.

In the case of `CCON=C1C=C[C@@]2(C)C(=C1)CC[C@@H]1[C@@H]2[C@@H](O)C[C@@]2(C)[C@H]1C[C@@H](C)[C@]2(O)/C(COC(C)=O)=N/OCC` [Example 11], the Swelling value came out at 0.1 cm in data set [1] (setting [3]) and 1.42 mL in data set [2] (setting [7]). Moreover, the “Circumference of the paw after administration” value (“Circumference of the paw” below) in data set [1] (setting [4]) was determined as 1.53 cm. Also, the inhibition in vivo at 0.26 mg/kg in data set [1] (setting [5]) was found to be 15.5%. Further, in data set [1] (setting [5]), the inhibition in vivo at 13 mg/kg was found to be 35.8%. The values for the inhibition in vivo at 130 mg/kg in data set [1] (setting [6]) and in data set [1] (setting [3]) were 68.1% and 63.9%, respectively. Besides, in data set [1] (setting [3]), the change in vivo at 130 mg/kg was 6.99%. Also, the Mortality with ICR mice (4 g/kg), in the data set with ICR mice (4.91 g/kg), in the data set with ICR mice (6.14 g/kg), in the data set with ICR mice (7.68 g/kg), in the data set with ICR mice (9.6 g/kg) and in the data set with ICR mice (12 g/kg) was 0/12 in each case. Further, in the data set with ICR mice (15 g/kg), the Mortality was 0/12. The inhibition in vivo at 90 mg/kg in data set [2] (setting [7]) came to 64.7%; in data set [2] (setting [8]), 67.5%. For the same compound, in data set [2] (rat, MSU-induced paw swelling), the inhibition in vivo at 0.36 mg/kg turned out to be 10.2%. Moreover, the inhibition in vivo at 1.8 mg/kg in data set [2] (rat, MSU-induced paw swelling) turned out to be 35.2%. In addition, the inhibition in vivo at 9 mg/kg in data set [2] (rat, MSU-induced paw swelling) turned out to be 49%. In data set [2] (setting [7]), the change in vivo at 90 mg/kg worked out at 116%. Also, in data set [2] (setting [9]), the “Mean volume of paw after administration” value came out at 2.64 mL.
For `CCC(=O)OC/C(=N\O)[C@@]1(O)[C@H](O)C[C@H]2[C@@H]3CCC4=CC(=NO)C=C[C@]4(C)[C@@]3(F)[C@@H](O)C[C@@]21C` [Example 14, (2E)-2-((8S,9R,10S,11S,13S,14S,16R,17R)-9-fluoro-11,16,17-trihydroxy (hydroxyimino)-10,13-dimethyl-6,7,8,9,10,11,12,13,14,15,16,17-dodecahydro-3H-cyclopentane[α]phenanthrene-17-yl)-2-(hydroxyimino)ethyl propionate], the Swelling value worked out at 0.03 cm in data set [1] (setting [3]) and 0.56 mL in data set [2] (setting [7]). In data set [1] (setting [4]), the “Circumference of the paw” value stood at 1.45 cm. Besides, the inhibition in vivo at 0.26 mg/kg in data set [1] (setting [5]) came out at 20.3%. Moreover, the inhibition in vivo at 13 mg/kg in data set [1] (setting [5]) worked out at 49.2%. The inhibition in vivo at 130 mg/kg was found to be 92.1% in data set [1] (setting [6]) and 89.1% in data set [1] (setting [3]). The change in vivo at 130 mg/kg in data set [1] (setting [3]) stood at 2.11%. Further, the Mortality with ICR mice (4 g/kg) is 0/12; with ICR mice (4.91 g/kg), 0/12; in the data set on ICR mice (6.14 g/kg) it was 0/12; with ICR mice (7.68 g/kg), 0/12; in the data set on ICR mice (9.6 g/kg), 1/12; with ICR mice (12 g/kg), 1/12. Besides, the Mortality with ICR mice (15 g/kg) is on record as 3/12. Further, the inhibition in vivo at 90 mg/kg was 85.6% in data set [2] (setting [7]) and 86.3% in data set [2] (setting [8]). For the same compound, in data set [2] (rat, MSU-induced paw swelling), the inhibition in vivo at 0.36 mg/kg turned out to be 5.23%. In addition, the inhibition in vivo at 1.8 mg/kg in data set [2] (rat, MSU-induced paw swelling) was 34.2%. The inhibition in vivo at 9 mg/kg in data set [2] (rat, MSU-induced paw swelling) worked out at 65.2%. Further, the change in vivo at 90 mg/kg in data set [2] (setting [7]) stood at 47.5%. The “Mean volume of paw after administration” value in data set [2] (setting [9]) was 1.74 mL.
On to `CCCCC(=O)O[C@]1(/C(CO)=N/O)CC[C@H]2[C@@H]3C[C@H](C)C4=CC(=NO)C=C[C@]4(C)[C@H]3[C@@H](O)C[C@@]21C` [Example 17, (6S,8S,9S,10R,11S,13S,14S,17R,E)-11-hydroxy-17-((E)-2-hydroxy-1-(hydroxyimino)ethyl)-3-(hydroxyimino)-6,10,13-trimethyl-6,7,8,9,10,11,12,13,14,15,16,17-dodecahydro-3H-cyclopentane[α]phenanthrene-17-yl valerate], for which the values for the Swelling value in data set [1] (setting [3]) and in data set [2] (setting [7]) were 0.01 cm and 0.14 mL, respectively. In data set [1] (setting [4]), the “Circumference of the paw” value is reported as 1.43 cm. In addition, the inhibition in vivo at 0.26 mg/kg in data set [1] (setting [5]) was found to be 28.2%. The inhibition in vivo at 13 mg/kg in data set [1] (setting [5]) stood at 60.3%. The figures for the inhibition in vivo at 130 mg/kg in data set [1] (setting [6]) and in data set [1] (setting [3]) were 98.7% and 96.4%, respectively. Further, the change in vivo at 130 mg/kg in data set [1] (setting [3]) is 0.7%. In addition, the Mortality with ICR mice (4 g/kg), in the data set with ICR mice (4.91 g/kg), with ICR mice (6.14 g/kg), with ICR mice (7.68 g/kg), in the data set with ICR mice (9.6 g/kg) and with ICR mice (12 g/kg) was 0/12 each time. In the data set with ICR mice (15 g/kg), the Mortality is 0/12. Further, the inhibition in vivo at 90 mg/kg in data set [2] (setting [7]) came out at 96.4%; in data set [2] (setting [8]), 97%. Moreover, the inhibition in vivo at 0.36 mg/kg in data set [2] (rat, MSU-induced paw swelling) stood at 10.3%. In data set [2] (rat, MSU-induced paw swelling), the inhibition in vivo at 1.8 mg/kg stood at 56.1%. Further, the inhibition in vivo at 9 mg/kg in data set [2] (rat, MSU-induced paw swelling) is 78.2%. Further, in data set [2] (setting [7]), the change in vivo at 90 mg/kg came out at 11.9%. Also, the “Mean volume of paw after administration” value in data set [2] (setting [9]) was 1.32 mL.
